Assay results as given in publication PMC10407255, “Comparison of activity, structure, and dynamics of SF-1 and LRH-1 complexed with small molecule modulators” (The Journal of Biological Chemistry, 2023).
Read-outs that look alike come from different tables or passages of the source. Blank lines part the entries; values can stand above or below the molecule they belong to.

Experiments:
[1] = target: T1, LRH-1 (Homo sapiens, UniProt O00482); assay: Luciferase reporter assay, LRH-1, HeLa cells; type: cell-based; conditions: for specificity for LRH-1 over SF-1 in reporter assays: 0.1, 1, and 10 μM, LRH-1 vs SF-1 reporter; for LRH-1 activation in luciferase reporter assay: small molecule at 0.1, 1, and 10 μM, relative to DMSO control
T1 construct: expressed in transfected cells; host or cells: HeLa
Experimental: (§1) Reporter assays were conducted as described previously ([47], [52], [53]). Briefly, HeLa cells were seeded at ∼7500 to 10,000 cells per well in 96-well plates (white-walled, clear bottom) in MEMα + 10% FBS – charcoal/dextran treated. Once cells reached 80 to 90% confluence, they were transfected with LRH-1 (in pCI vector, 5 ng/well) or SF-1 (in pcDNA vector, 5 ng/well), a reporter plasmid with an NR5A response element derived from the SHP promoter cloned upstream of Firefly Luciferase (in pGL3-Basic vector, 50 ng/well), and a plasmid expressing Renilla Luciferase constitutively from a CMV promoter (1 ng/well). Cells were transfected with FuGENE at a ratio of 3:1 (FuGENE:DNA). Twenty-four hours after transfection, compounds were diluted in Opti-MEM and introduced to cells at the final concentrations indicated in figures (final DMSO concentration was 0.37%). Luciferase signal was measured after ∼24 h using the DualGlo kit (Promega) with a BioTek Neo plate reader. Each experiment was conducted with three biological replicates, each with three technical replicates averaged prior to data analysis. Firefly Luciferase signal for each well was divided by the well’s Renilla Luciferase signal intensity and then normalized relative to the DMSO control. Data were analyzed with GraphPad Prism (version 9) using a stimulating dose–response curve (Hill slope = 1).

[2] = target: T2, L265M SF-1 mutant (Homo sapiens, UniProt Q13285, L265M); assay: Luciferase reporter assay, L265M SF-1 mutant; type: cell-based; conditions: 0.1, 1, and 10 µM, relative to DMSO control
T2 construct: expressed in transfected cells; host or cells: HeLa
Experimental: as §1, with “1). […]” for “1).”

[3] = target: T3, SF-1 (Homo sapiens, UniProt Q13285); assay: Luciferase reporter assay, SF-1, HeLa cells; type: cell-based; conditions: for EC50: HeLa cells, ~24 h; for luciferase signal at highest concentration: cells treated with 3e-5 M, potentially indicating cell toxicity or compound insolubility, data excluded; for maximum activation: normalized relative to DMSO control; for SF-1 activation in luciferase reporter assay: small molecule at 0.1, 1, and 10 μM, relative to DMSO control
T3 construct: expressed in transfected cells; host or cells: HeLa
Experimental: as §1

[4] = target: T4, SF-1 LBD M268L (Homo sapiens, UniProt Q13285, M268L); assay: FP assay (forward binding and competition), SF-1 M268L; conditions: for effect of deep pocket mutation on binding affinity: M268 mutant compared to WT, FP competition
T4 construct: transformed with the SF-1 LBD (amino acids 218–461) in the pLIC-His vector; His (pLIC-His vector); made in house
Experimental: (§2) FP assays were performed as described previously ([38], [47], [53]). Briefly, experiments were conducted in black, polystyrene, non-binding surface 384-well plates (Corning Inc., Corning, NY) with 30 μl volumes in assay buffer (150 mM NaCl, 20 mM Tris-HCl, 5% glycerol, pH 7.4). […] Polarization was monitored on a Neo plate reader (Biotek, Winooski, VT) at an excitation/emission wavelength of 485/528 nm. Plates were incubated overnight at 4 °C and centrifuged at 2000g for 2 min before polarization measurement. Nine technical replicates were conducted over three experiments and compiled binding data were baseline-corrected to wells with no protein and fit with a one-site binding curve in GraphPad Prism version 7 (GraphPad, Inc, La Jolla, CA). 6N conjugated to fluorescein amidite (FAM) (10 nM/well – 0.8 times the affinity of SF-1 for 6N-FAM) was incubated with SF-1 LBD (25 nM/well – 60% of the forward binding Bmax). Unlabeled compounds were added at concentrations indicated in figures with DMSO in each well held constant at 6.7% v/v. Each experiment was performed two or three times with four technical replicates each. Technical replicates were averaged and normalized independently prior to final data analysis.
(§3) All mutations other than L265M were introduced using the QuikChange II Site-Directed Mutagenesis Kit (Agilent). The Q5 Site-Directed Mutagenesis Kit (New England Biolabs) was used to generate the L265M mutant. All constructs were sequenced prior to use.

[5] = target: T5, SF-1 LBD (Homo sapiens, UniProt Q13285); assay: Differential scanning fluorimetry (thermal shift assay); type: binding; conditions: for Tm (melting temperature): SF-1 LBD pre-exchanged with DLPC, incubated with small molecule overnight; for positive shift in melting temperature: relative to the DLPC phospholipid control
T5 construct: transformed with the SF-1 LBD (amino acids 218–461) in the pLIC-His vector; made in house; host or cells: E. coli BL21(DE3)-pLysS
Experimental: Purified SF-1 LBD, pre-exchanged with DLPC (0.2 mg/ml), was combined with small molecules overnight at 4 °C in assay buffer. SYPRO orange dye was added to the complexes the next day, at a final dilution of 1:1000. Complexes were heated at a rate of 0.5 °C/minute on a StepOne Plus thermocycler, using the ROX filter for fluorescence detection. The melting temperature (Tm, 50% unfolding) was calculated using the Bolzman equation GraphPad Prism (version 9). Assays were conducted with nine technical replicates over three experiments.

[6] = target: T5, SF-1 LBD; assay: FP assay (6N-FAM forward binding and competition), wild-type SF-1; conditions: for Ki: FP competition with 10 nM 6N-FAM, 25 nM SF-1 LBD, 95% confidence intervals in brackets, read-out: Ki (inhibition constant)
Experimental: as §2

[7] = target: T6, SF-1 LBD T272V (Homo sapiens, UniProt Q13285, T272V); assay: FP assay (forward binding and competition), SF-1 T272V; conditions: for effect of deep pocket mutation on binding affinity: T272 mutant compared to WT, FP competition
T6 construct: transformed with the SF-1 LBD (amino acids 218–461) in the pLIC-His vector; His (pLIC-His vector); made in house
Experimental: as §2, §3

[8] = target: T7, SF-1 LBD Y436F (Homo sapiens, UniProt Q13285, Y436F); assay: FP assay (forward binding and competition), SF-1 Y436F; conditions: for effect of pocket mouth mutation Y436 on binding affinity: compared to WT, FP competition
T7 construct: transformed with the SF-1 LBD (amino acids 218–461) in the pLIC-His vector; His (pLIC-His vector); made in house
Experimental: as §2, §3

[9] = target: T8, SF-1 LBD K440A (Homo sapiens, UniProt Q13285, K440A); assay: FP assay (forward binding and competition), SF-1 K440A
T8 construct: transformed with the SF-1 LBD (amino acids 218–461) in the pLIC-His vector; His (pLIC-His vector); made in house
Experimental: as §2
All mutations other than L265M were introduced using the QuikChange II Site-Directed Mutagenesis Kit (Agilent). […]

[10] = target: T9, CysLite SF-1 (steroidogenic factor-1 ligand binding domain, amino acids 218-461, C247S, C412S) (human, UniProt Q13285 218-461, C247S | C412S); assay: crystal structure; cleaved SF-1 CysLite (~5 mg/ml) incubated with 4-fold molar excess of TIF2 peptide at room temperature for 2 h; hanging drop vapor diffusion at 4 °C, Na acetate pH 4.6, glycerol, PEG 4000; crystals soaked 2 days with 6N-10CA; 2.59 Å; conditions: both partners purified
T9 construct: Steroidogenic factor-1 (SF-1); Expressed from the pLic-His vector; His tag cleaved with tobacco etch virus protease; In the crystal the pocket holds 6N-10CA (soaked in) and a bacterial phospholipid modelled as DPPE; also called SF-1 LBD; SF-1 CysLite; source: E. coli BL21(DE3)-pLysS, purified (HisTrap, TEV cleavage, second HisTrap, SEC)

[11] = 95% confidence intervals in brackets, read-out: EC50 (half maximal effective concentration)

T7 sequence (Q13285 218-461 Y436F): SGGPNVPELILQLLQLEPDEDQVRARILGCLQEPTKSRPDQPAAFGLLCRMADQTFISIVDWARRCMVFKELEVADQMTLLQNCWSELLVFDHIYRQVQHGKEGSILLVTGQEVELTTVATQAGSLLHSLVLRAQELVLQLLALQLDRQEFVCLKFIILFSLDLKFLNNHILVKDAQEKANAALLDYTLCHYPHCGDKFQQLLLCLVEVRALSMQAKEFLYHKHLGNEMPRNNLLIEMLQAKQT
T5 sequence (Q13285 218-461): as the sequence (Q13285 218-461 Y436F) above, with F219Y counted along it
T4 sequence (Q13285 218-461 M268L): as the sequence (Q13285 218-461 Y436F) above, with M51L, F219Y counted along it
T6 sequence (Q13285 218-461 T272V): as the sequence (Q13285 218-461 Y436F) above, with T55V, F219Y counted along it
T3 sequence (Q13285 whole entry): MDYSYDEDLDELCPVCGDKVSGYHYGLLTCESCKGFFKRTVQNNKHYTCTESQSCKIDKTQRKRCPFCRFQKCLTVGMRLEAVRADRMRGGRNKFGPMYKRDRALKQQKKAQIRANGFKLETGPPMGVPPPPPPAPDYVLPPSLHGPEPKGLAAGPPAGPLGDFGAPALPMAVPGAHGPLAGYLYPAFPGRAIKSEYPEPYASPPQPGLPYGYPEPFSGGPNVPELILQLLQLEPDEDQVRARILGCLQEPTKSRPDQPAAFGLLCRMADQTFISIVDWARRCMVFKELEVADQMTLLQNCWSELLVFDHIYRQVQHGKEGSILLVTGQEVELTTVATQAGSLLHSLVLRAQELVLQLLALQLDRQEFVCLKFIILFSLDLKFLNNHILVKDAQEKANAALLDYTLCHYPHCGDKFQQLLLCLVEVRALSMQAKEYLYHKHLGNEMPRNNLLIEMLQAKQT
T1 sequence (O00482 whole entry): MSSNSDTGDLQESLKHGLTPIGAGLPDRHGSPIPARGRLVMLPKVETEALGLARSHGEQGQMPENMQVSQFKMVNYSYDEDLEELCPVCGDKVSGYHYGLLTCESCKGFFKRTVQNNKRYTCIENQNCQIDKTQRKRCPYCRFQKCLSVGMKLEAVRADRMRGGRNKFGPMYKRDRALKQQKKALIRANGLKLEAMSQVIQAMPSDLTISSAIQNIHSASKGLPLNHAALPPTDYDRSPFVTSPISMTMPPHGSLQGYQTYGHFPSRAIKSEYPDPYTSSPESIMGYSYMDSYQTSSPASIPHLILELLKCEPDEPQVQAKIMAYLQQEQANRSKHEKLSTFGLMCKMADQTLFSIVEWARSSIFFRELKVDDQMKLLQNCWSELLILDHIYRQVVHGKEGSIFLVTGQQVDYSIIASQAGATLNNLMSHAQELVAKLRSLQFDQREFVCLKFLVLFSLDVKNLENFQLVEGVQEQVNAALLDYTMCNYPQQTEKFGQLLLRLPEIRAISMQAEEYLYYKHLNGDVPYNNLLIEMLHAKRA
T8 sequence (Q13285 218-461 K440A): as the sequence (Q13285 218-461 Y436F) above, with F219Y, K223A counted along it
T2 sequence (Q13285 whole entry L265M): as the sequence (Q13285 whole entry) above, with L265M counted along it
T9 sequence (Q13285 218-461 C247S/C412S): as the sequence (Q13285 218-461 Y436F) above, with C30S, C195S, F219Y counted along it

Molecule: C=C(c1ccccc1)[C@@]12CC[C@H](NC(C)=O)C1CC(CCCCCCCCCC(=O)O)=C2c1ccccc1 (mixture of isomers) [2N-10CA]
specificity for LRH-1 over SF-1 in reporter assays [1]: specificity for LRH-1 was largely preserved | LRH-1 activation in luciferase reporter assay [1]: improved agonism | activation of L265M SF-1 mutant [2]: failed to activate

Molecule: C=C(c1ccccc1)[C@@]12CC[C@H](NC(N)=O)C1CC(CCCCCCCCCC(=O)O)=C2c1ccccc1 (mixture of isomers) [4N-10CA]
specificity for LRH-1 over SF-1 in reporter assays [1]: specificity for LRH-1 was largely preserved | LRH-1 activation in luciferase reporter assay [1]: improved agonism

Molecule: C=C(c1ccccc1)C12CCC(NC(C)=O)C1CC(CCCCCC)=C2c1ccccc1 (stereo not shown) [2N]
SF-1 activation in luciferase reporter assay [3]: without activating SF-1 | LRH-1 activation in luciferase reporter assay [1]: activated LRH-1

Molecule: C=C(c1ccccc1)C12CCC(OC(N)=O)C1CC(CCCCCC)=C2c1ccccc1 (stereo not shown) [3N]
SF-1 activation in luciferase reporter assay [3]: reduced SF-1 activity

Molecule: C=C(c1ccccc1)C12CCC(NC(N)=O)C1CC(CCCCCC)=C2c1ccccc1 (stereo not shown) [4N]
SF-1 activation in luciferase reporter assay [3]: without activating SF-1 | LRH-1 activation in luciferase reporter assay [1]: activated LRH-1

Molecule: CCCCCCCCCCCC(=O)OC[C@H](COP(=O)([O-])OCC[N+](C)(C)C)OC(=O)CCCCCCCCCCC [DLPC, 1,2-dilauroyl-sn-glycero-3-phosphocholine, reference compound]
Tm (melting temperature) [5]: 52.2 °C

Further lines, with some results ahead:

EC50 ([3]; read-out: EC50): 100 nM | potency of 6N-10CA relative to 10CA (more potent) ([3]; SF-1 luciferase reporter): 16 fold | potency for SF-1 compared with LRH-1 ([3]; SF-1 vs LRH-1 value of ref 47): nearly two times less | maximum activation [3]: ~1.7 | effect of deep pocket mutation on binding affinity [4]: decreased SF-1 binding affinity | Tm (melting temperature) [5]: 58.3 °C | positive shift in melting temperature [5]: ~6.5 °C | Ki [6]: 60 nM | affinity for SF-1 compared with LRH-1 ([6]; SF-1 Ki (Fig. 3C) vs LRH-1 value of ref 47): over two orders of magnitude lower | improvement in affinity of 6N-10CA over 10CA ([6]; SF-1 binding, FP competition): ~4 fold | increase in affinity of 6N-10CA over 6N ([6]; SF-1 binding, FP competition): ~20 fold | effect of deep pocket mutation on binding affinity [7]: decreased SF-1 binding affinity | effect of pocket mouth mutation Y436 on binding affinity [8]: minimal impact
Molecule: C=C(c1ccccc1)[C@@]12CC[C@H](NS(N)(=O)=O)[C@@H]1CC(CCCCCCCCCC(=O)O)=C2c1ccccc1 (racemic) [6N-10CA]
luciferase signal at highest concentration [3]: drastic decrease in overall signal | effect of K440A mutation on binding affinity ([9]; compared to WT, FP competition): increased affinity for 6N-10CA was statistically insignificant

Kd ([4]; M268L, 10 nM 6N-FAM, read-out: probe affinity determined with forward binding assays): 19.3 nM | Kd ([6]; WT SF-1 LBD, 10 nM 6N-FAM, read-out: probe affinity determined with forward binding assays): 12 nM | Kd ([7]; T272V, 10 nM 6N-FAM, read-out: probe affinity determined with forward binding assays): 10.9 nM | Kd ([8]; Y436F, 10 nM 6N-FAM, read-out: probe affinity determined with forward binding assays): 9.9 nM | Kd ([9]; K440A, 10 nM 6N-FAM, read-out: probe affinity determined with forward binding assays): 5.5 nM
Molecule: C=C(c1ccccc1)[C@@]12CC[C@H](NS(N)(=O)=O)[C@@H]1CC(CCCCCCCCCC(=O)Nc1ccc3c(c1)C(=O)OC31c3ccc(O)cc3Oc3cc(O)ccc31)=C2c1ccccc1 (racemic) [6N-FAM, reference compound]

EC50 [3, 11]: 130 nM | maximum activation [3]: ~1.4 | Tm (melting temperature) [5]: 58.6 °C | positive shift in melting temperature [5]: ~6.5 °C | Ki [6]: 1400 nM | effect of pocket mouth mutation Y436 on binding affinity [8]: minimal impact
Molecule: C=C(c1ccccc1)[C@@]12CC[C@H](NS(N)(=O)=O)[C@@H]1CC(CCCCCC)=C2c1ccccc1 (racemic) [6N]
luciferase signal at highest concentration [3]: drastic decrease in overall signal

EC50 [3, 11]: 1600 nM | effect of deep pocket mutation on binding affinity [4]: decreased SF-1 binding affinity | Tm (melting temperature) [5]: 54.5 °C | positive shift in melting temperature [5]: ~2 °C | Ki [6]: 250 nM | effect of deep pocket mutation on binding affinity [7]: decreased SF-1 binding affinity | effect of pocket mouth mutation Y436 on binding affinity [8]: decreased 10CA binding affinity
Molecule: C=C(c1ccccc1)[C@@]12CC[C@@H](O)[C@@H]1CC(CCCCCCCCCC(=O)O)=C2c1ccccc1 (racemic) [10CA]

binding result [10]: binds
Molecule: KENALLRYLLDKDD [TIF2 peptide (fragment of the coactivator transcriptional intermediate factor 2)]
